Experimental data: paper PMC4862498, “PI4 Kinase Is a Prophylactic but Not Radical Curative Target in Plasmodium vivax-Type Malaria Parasites” (Antimicrobial Agents and Chemotherapy, 2016)
Values joined by “and” are separate entries in the source; they are usually repeats but may differ in a detail not shown here. Equal entries are not always repeated. “Also recorded” adds a separate entry of the source.

Tests used:
[1] = tested on: P. cynomolgi hypnozoites in primary rhesus hepatocytes; design: method as in PMID 24366744; details: P. cynomolgi in vitro liver-stage assay; read-out: IC50 against hypnozoites; cited from earlier work
[2] = Clinical chemistry, hematology, weight and clinical observation of treated monkeys; assay type: in vivo, rhesus macaques (Macaca mulatta)
Description: (§1) Monkeys were treated according to the schedule shown in Table 1 (stratification of treatment groups is given in the supplemental material). During treatment, monkeys were weighed daily and received the compound via gavage, followed by gastric feeding (weight change during treatment is shown in Table S6 in the supplemental material). Monkeys in the prophylaxis groups (groups 691-proph and 599-proph) were treated ∼20 min after the i.v. sporozoite injection. The other monkeys were treated when all the monkeys in the experiment (except those in the prophylaxis group) were blood-stage patent (at day 11 p.i.). To kill the blood-stage parasites, all monkeys received a 5-day treatment of 7.5 mg/kg of body weight of chloroquine (CQ) (intramuscular [i.m.] injection), during compound dosing. KDU691 was formulated in 0.5% methylcellulose and 0.5% Tween 80 in water. LMV599 was formulated as a solid dispersion in a solution containing 5.6% (wt/wt) Tween 80–44.4% hydroxypropyl methylcellulose (HPMC) E3–38.9% Soluplus–11.1% vitamin E D-alphatocopheryl polyethylene glycol 1000 succinate (TPGS).
Blood samples were collected for clinical evaluation and pharmacokinetic (PK) analysis (see Table S2 in the supplemental material).
When the first relapse was observed, monkeys of the KDU691 experiment were radically cured with primaquine (PQ)/CQ (oral administration of 1.8 mg/kg PQ for 14 days together with i.m. administration of 7.5 mg/kg CQ for the first five days of PQ treatment) to cure both blood stage and liver stage parasites, […]
The monkeys of the LMV599/PQ experiment were cured with a five day CQ treatment (7.5 mg/kg, i.m. administration) at the first relapse and were monitored until the second relapse after which they were cured with CQ (7.5 mg/kg, intramuscular (i.m.) for five days) plus PQ (1.8 mg/kg for 14 days).
Table S2: PK and clinical blood sampling schedule in monkeys.
Groups are named 691 for KDU691 and 599 for LMV599 treatment groups, followed by -C for control group (no compound), -proph for prophylactic treatment (treated immediately after infection), and -RC for radical cure treatment (treated when blood stage positive). […]
the face and chest areas were very yellow. Therefore the 691-RC group (treated from d11 to d15 pi) was monitored by daily clinical chemistry analysis during dosing to be compared with untreated 691-C. […]
sampling of the single dose prophylaxis group at day 0, 1, 7 and 100. The lack of aberrant clinical […]
as radical cure compound, during which also clinical sampling was performed daily. a: only clinical chemistry samples were taken. *: t = 24 sample was taken only on the 1st day of dosing.
Group name Clin. chem PK sampling PK time points
Hematology (h post dosing)
691-proph 1st and 5th day of dosing t = 0, 1, 4, 6 and 24*
691-RC Dailya 1st and 5th day of dosing t = 0, 1, 4, 6 and 24* […]
599-RC Daily 1st and 4th day of dosing t = 0, 1, 2, 4 and 24
Clinical chemistry and hematology
For the clinical analysis serum from 1 mL of clotted blood was analysed using the Cobas Integra 400 plus fully automated chemistry analyser. The following clinical parameters were determined: Alkaline phosphatase; Alanine Aminotransferase; Albumin: Aspartate aminotransfeasr; Bilirubin; Calcium; Cholesterol; Creatine kinase; Creatinine; C-reactive protein: Iron; Phosphate; Gamma-glutamyl transpeptidase; Glucose; Hemoglobin; Potassium; Lactate dehydrogenase; Sodium; Total protein; Urea Haematological parameters were determined from 1 mL EDTA-blood with a Sysmex XT-2000iV automated system. The following hematological parameters were determined: Basophilic granulocytes; Eosinophilic granulocytes; Erythrocytes; Hematocrit; Leucocytes; Leucocyte differentiation; Lymphocytes; Mean corpusculair hemoglobin; Mean corpusculair hemoglobin concentration; Mean corpusculair volume; Neutrophilic granulocytes; Red cell distribution width; Thrombocytes […]
Liver tissue samples were excised, dipped in PBS, gently blotted with absorbent paper, dried, weighed and stored at -20 °C until further analysis. […]

[3] = tested on: P. cynomolgi sporozoite-infected rhesus macaques (hypnozoites, relapse); assay: Radical cure in P. cynomolgi sporozoite-infected rhesus macaques; assay type: in vivo, Plasmodium cynomolgi; details: group PQ-RC
Description: Sporozoites were harvested from P. cynomolgi-infected mosquitoes, washed with phosphate-buffered saline (PBS), and diluted to 100,000 sporozoites (spz)/ml in PBS. One-milliliter aliquots of sporozoites were prepared and injected into monkeys via intravenous (i.v.) injection.
as §1
Parasitemia was closely monitored by thin-film analysis. Animals were trained to present for thigh pricks, which was followed by a reward. Thin-film slides were stained with 20% Giemsa stain, and at least 50 fields (±20,000 erythrocytes [RBCs]) were analyzed with a bright-field microscope (×1,200 magnification). As soon as all monkeys other than the prophylactic treatment groups were blood-stage positive, treatment was started as indicated above (Table 1). After the last day of compound dosing, the absence of blood-stage parasites was confirmed by thin smears. From day 23 p.i., monkeys were monitored daily for relapses. The KDU691 radical-cure (group 691-RC) treatment and control groups were monitored until the first relapse. The LMV599 control (group 599-C), radical-cure (group 599-RC), and PQ radical-cure (group PQ-RC) treatment groups were monitored until the second relapse or until day 100 p.i. (whichever came first). At the end of the study, monkeys that had relapsed received a 14-day primaquine treatment, with a final check 2 weeks after the last primaquine dose.
P. cynomolgi sporozoite production
A monkey was infected with […] P. cynomolgi M strain blood stage parasites, thawed from a first passage stock (i.e. blood stage parasites from a monkey infected with P. cynomolgi M strain sporozoites). For each batch of sporozoites needed, a single monkey was infected with P. cynomolgi blood stage parasites.
At day 11 and 12 post infection 9 mL infected blood was collected into a Lithium-heparinised tube. The blood was kept at 38°C and fed approximately 500 three to five days old female Anopheles stephensi mosquitoes Sind-Kasur strain Nijmegen (Nijmegen University Medical Centre St Radboud, Department of Medical Microbiology) using a glass feeder system as described by Ponnudurai et al.. After the second bleed, the monkey was cured by three daily intramuscular injections of 7.5 mg/kg chloroquine, monitored for parasite clearance 24 days after chloroquine treatment and returned to colony.
Mosquitoes were kept in climate chambers at 25 °C and 80% humidity and were fed 5% D -glucose on cotton pads daily. Seven days after feeding on the infected rhesus blood, oocyst numbers were determined in midguts of ten individuals, using 1% mercurochrome stain. Mosquitoes were given a second (uninfected) blood meal immediately afterwards to promote sporozoite maturation and invasion of the salivary glands. Sporozoites were isolated from the P. cynomolgi infected mosquitoes around day16 after the infected blood meal.
In vivo monkey infection and treatment procedures […]

[4] = tested on: P. cynomolgi developing EEFs (liver schizonts) in primary rhesus hepatocytes; design: method as in PMID 24366744; details: P. cynomolgi in vitro liver-stage assay; read-out: IC50 against developing EEFs; cited from earlier work
[5] = group PQ-RC, 1.8 mg/kg, % of weight at d0

SMILES: COc1cc(NC(C)CCCN)c2ncccc2c1 (stereo not drawn) [PQ, primaquine]
- IC50 [1]: 840 nM
- Weight change d1 [2, 5]: -0.8%
- Weight change d2 [2, 5]: -1.2%
- Weight change d3 [2, 5]: -2.6%
- Weight change d4 [2, 5]: -2.9%
- mean weight loss ([2]; primaquine treatment, 1.8 mg/kg for 5 days, control 2.7%): 2.9%
- Day p.i. to first relapse ([3]; 1.8 mg/kg oral for 5 days from day 11 p.i. plus CQ, individual monkeys, ND = not detected up to day 100 p.i., 1.8 mg/kg): 47 day p.i. and 68 day p.i.
- animals radically cured ([3]; 1.8 mg/kg oral for 5 days, monitored up to 100 days p.i., 1.8 mg/kg): two out of four; also recorded: two were completely cured
- Day p.i. to second relapse ([3]; 1.8 mg/kg oral for 5 days, individual monkeys, ND = not detected up to day 100 p.i.): 100 day p.i.
- day p.i. to first relapse, mean ± SD of the relapsing animals ([3]; 1.8 mg/kg oral for 5 days, only two of the four animals relapsed, delay P = 0.000237): 57.5 ± 14.8 day p.i.
- Day p.i. to primary parasitemia ([3]; individual monkeys, baseline, before dosing started): 9 day p.i. and 10 day p.i. and 11 day p.i.
- IC50 [4]: 370 nM
